Counter-ions that a name gives are not always drawn. Like-named read-outs stand apart in the source and are kept apart here.
Columns and labels:
serotonine receptor [1] = target: T1, serotonine receptor (Rattus norvegicus, UniProt P14842); assay: in vivo; type: in vivo; parameters: For the in vivo studies the rat paw-oedema test was applied; from tissue; host or cells: live rat, paw; settings: for ED50: read-out: In vivo test ED50, 50% inhibition of serotonine induced oedema
[2] = hypotensive activity in anesthetized cats; type: in vivo
Protocol: The measurements were performed in cats anesthetized with 30 mg/kg of Pentothal (5-ethyl-5-(1-methylbutyl)-2-thiobarbituric acid sodium salt). The left femoral artery was cannulated; the arterial blood pressure was measured by means of Statham P 23 pressure transducer and registrated by a Hellige polygraph. The test compounds were injected into the right femoral vein. (Method: Mc Leod L. J., in: Pharmacological Experiments on Intact Preparations, E. S. Livingstone, Edinburgh and London, 1970, pp. 65-66.)

serotonine receptor [3] = target: T1, serotonine receptor; parameters: The in vitro antiserotonine activity was determined in rat uterine horn preparation; from tissue; host or cells: rat uterine horn
[4] = test system: reserpine-induced hypotermy; assay: antagonism of reserpine-induced hypotermy in mice (antidepressant activity); type: in vivo; settings: for antidepressant efficacy/potency compared with Imipramine: mouse, in vivo
Protocol: The antidepressant activity was assessed by measuring the antagonism of reserpine-induced hypotermy in mice. The change in body temperature (Δt) was detected as compared to the control animals (B. M. Askew, Life Sci. 10, 725 /1963/). The acute toxicity data /LD50 / were determined on mice; the evaluation was performed 24 hours after the administration of the compounds (J. T. Litchfield and F. Wilcoxon, J. Pharmacol. exp. Ther. 96, 99 /1949/).

[5] = acute toxicity (LD50) in mice; settings: mouse, in vivo, evaluated 24 hours after administration
dopamine receptor [6] = assay: antagonism of narcosis-potentiating effect of Haloperidol in rats; type: in vivo
Protocol: The in vivo measurements were performed on rats. The antagonism of narcosis-(Hexobarbital Na, 50 mg/kg i.v.)-potentiating effect of Haloperidol (5 mg/kg i.p.) was determined according to Borsy et al. (Acta Physiol. 27, 65-80 /1965/).

dopamine receptor [7] = assay: dopamine receptor stimulant activity in vitro, electrically stimulated mouse vas deferens preparation; settings: for IC50: electrically stimulated mouse vas deferens, read-out: In vitro test Mouse vas deferens ID50
Protocol: The dopamine receptor stimulant activities in vitro were determined on electrically stimulated mouse vas deferens preparation (J. Hughes et al., Brit. J. Pharmacol. 53, 371-381 /1975/).

[8] = oral blood pressure lowering in awake spontaneously hypertensive rats; type: in vivo; settings: 1.0 to 2.5 mg/kg orally
From the text: A group of the new compounds according to the invention exerts hypotensive effect on anesthetized animals in low dosages. […] The hypotensive effect of the compounds is accompanied by bradycardia; they inhibit the vasomotor reflexes acting both at central and peripheral target structures. The mechanism of hypotensive effect is different in certain aspects from that of the hydrogenated ergot alkaloids; namely, the new derivatives have no or only negligible adrenolytic activity. Thus, the hypotensive effect is mainly due to an action exerted on the vasomotor center. These derivatives lower the blood pressure also in hypertensive animals upon oral administration. […] The compounds according to the invention exert powerful hypotensive action also in cats.

T1 sequence (P14842 whole entry): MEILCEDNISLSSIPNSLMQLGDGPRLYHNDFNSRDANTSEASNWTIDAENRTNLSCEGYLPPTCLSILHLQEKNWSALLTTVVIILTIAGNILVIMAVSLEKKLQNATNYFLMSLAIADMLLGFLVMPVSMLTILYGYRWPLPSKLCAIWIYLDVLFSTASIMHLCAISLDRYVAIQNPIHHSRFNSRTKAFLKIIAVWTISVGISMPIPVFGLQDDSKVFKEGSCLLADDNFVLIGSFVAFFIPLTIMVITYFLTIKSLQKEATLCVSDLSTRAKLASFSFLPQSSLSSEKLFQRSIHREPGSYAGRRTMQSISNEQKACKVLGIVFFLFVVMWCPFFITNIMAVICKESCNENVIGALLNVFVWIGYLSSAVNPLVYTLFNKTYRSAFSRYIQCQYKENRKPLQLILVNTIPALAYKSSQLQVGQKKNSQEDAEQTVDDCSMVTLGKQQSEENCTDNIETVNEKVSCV

| Structure (SMILES) | ED50 (serotonine receptor [1]; po) [mg/kg] | ED50 (serotonine receptor [1]; sc) [mg/kg] | Duration of action ([2]; 0.5 mg/kg i.v.) [h] | IC50 (serotonine receptor [3]) [nM] | Duration of action ([2]; 0.1 mg/kg i.v.) [h] | further results |
| --- | --- | --- | --- | --- | --- | --- |
| CN1CC(CN(CCN=[N+]=[N-])S(C)(=O)=O)CC2c3cccc4c3c(cn4C)CC21 (centres unmarked) [Example 10, 1,6-dimethyl-8-[(N-methanesulfonyl, N-azidoethyl)-aminomethyl]-ergoline hydrogen maleate] | 0.47 | 0.042 | 1.5 | 2.4 |  | potency compared with Methysergide upon oral administration (serotonine receptor [1]; in vivo, po): more potent than Methysergide |
| CN1CC(CN(CCN=[N+]=[N-])S(C)(=O)=O)=CC2c3cccc4[nH]c(Br)c(c34)CC21 (centres unmarked) [Example 3, 2-Bromo-6-methyl-8-[(N-methanesulfonyl, N-azidoethyl/aminomethyl]-ergol-8-ene hydrogen maleate] |  |  | 1.5 |  | 1.5 |  |
| CN1CC(CN(CCN=[N+]=[N-])S(C)(=O)=O)=CC2c3cccc4c3c(cn4C)CC21 (centres unmarked) [Example 4, 1,6-Dimethyl-8-[(N-methanesulfonyl, N-azidoethyl/aminomethyl]-ergol-8-ene tartarate] | 3.7 | 0.22 | 2 | 1.21 | 1.5 |  |
| CN1CC(CN(CCOS(C)(=O)=O)S(C)(=O)=O)=CC2c3cccc4[nH]cc(c34)CC21 (centres unmarked) [Example 1, 6-Methyl-8-[(N-methanesulfonyl, N-methanesulfonyloxyethyl)-aminomethyl]-ergol-8-ene hydrogen maleate] |  |  | 1.5 to 2 |  |  | antidepressant efficacy/potency compared with Imipramine [4]: equal to; LD50 at 24 h ([5]; ip): 100 mg/kg; LD50 at 24 h ([5]; po): 100 mg/kg |
| CN1C[C@H](C(=O)N[C@]2(C)O[C@@]3(O)[C@@H]4CCCN4C(=O)[C@H](Cc4ccccc4)N3C2=O)C[C@@H]2c3cccc4[nH]cc(c34)C[C@H]21 [Dihydroergotamine, reference compound] |  |  |  |  |  | Duration of action ([2]; 0.2 mg/kg i.v.): 0.5 h |
| CC(C)C[C@H]1C(=O)N2CCC[C@H]2[C@]2(O)O[C@](NC(=O)[C@@H]3C=C4c5cccc6[nH]c(Br)c(c56)C[C@H]4N(C)C3)(C(C)C)C(=O)N12 [Bromocryptine, 2-bromo-α-ergocryptine, reference compound] |  |  |  |  |  | Antagonism of Haloperidol effect in rats, Inhibition (dopamine receptor [6]; 10.0 mg/kg p.o.): 25.9%; Antagonism of Haloperidol effect in rats, Inhibition (dopamine receptor [6]; 10.0 mg/kg s.c.): 26.2%; Antagonism of Haloperidol effect in rats, Inhibition (dopamine receptor [6]; 30.0 mg/kg p.o.): 54.8%; Antagonism of Haloperidol effect in rats, Inhibition (dopamine receptor [6]; 30.0 mg/kg s.c.): 34.2%; IC50 (dopamine receptor [7]): 20 nM |
| CN1CC(CN(CCN=[N+]=[N-])S(C)(=O)=O)CC2c3cccc4c3c(c(Br)n4C)CC21 (centres unmarked) [Example 11, 2-bromo-1,6-dimethyl-8-[(N-methanesulfonyl, N-azidoethyl)-aminomethyl]-ergoline tartarate] | 2 | 0.3 | 2 | 101 |  | Duration of action ([2]; 0.25 mg/kg i.v.): 2 h |
| CN1CC(CN(CCN=[N+]=[N-])S(C)(=O)=O)=CC2c3cccc4[nH]cc(c34)CC21 (centres unmarked) [Example 2, 6-Methyl-8-[(N-methanesulfonyl, N-azidoethyl)-aminomethyl]-ergol-8-ene hydrogen maleate] |  |  | 2 |  | 2 | Antidepressant activity, Δt (change in body temperature vs control) ([4]; 10 mg/kg p.o., reserpine-induced hypotermy, mice): +6.5 °C; antidepressant efficacy/potency compared with Imipramine [4]: higher than that of Imipramine; Antagonism of Haloperidol effect in rats, Inhibition (dopamine receptor [6]; 3.0 mg/kg s.c.): 68.7%; Antagonism of Haloperidol effect in rats, Inhibition (dopamine receptor [6]; 10.0 mg/kg p.o.): 38.9%; Antagonism of Haloperidol effect in rats, Inhibition (dopamine receptor [6]; 10.0 mg/kg s.c.): 92.2%; Antagonism of Haloperidol effect in rats, Inhibition (dopamine receptor [6]; 30.0 mg/kg p.o.): 48.2%; dopamine stimulant potency compared with Bromocryptine in vivo (dopamine receptor [6]; in vivo): higher than that of the reference substance; pharmacodynamic effects upon oral administration (in words) (dopamine receptor [6]; oral): could also be detected upon oral administration; blood pressure lowering (in words) [8]: lowered the blood pressure for several hours; IC50 (dopamine receptor [7]): 50 nM; dopamine stimulant efficacy compared with Bromocryptine in vitro (dopamine receptor [7]; in vitro): close to that of Bromocryptine; LD50 at 24 h ([5]; ip): 100 mg/kg; LD50 at 24 h ([5]; po): 100 mg/kg |
| CN1CC(CN(CCOS(C)(=O)=O)S(C)(=O)=O)CC2c3cccc4c3c(cn4C)CC21 (centres unmarked) [Example 9, 1,6-dimethyl-8-[(N-methanesulfonyl, N-methanesulfonyloxy-ethyl)-aminomethyl]-ergoline hydrogen maleate] | 1 | 0.082 | 1 | 106 |  |  |
| CN1CC(CN(CCN=[N+]=[N-])S(C)(=O)=O)CC2c3cccc4[nH]cc(c34)CC21 (centres unmarked) [Example 7, 6-Methyl-8-[(N-methanesulfonyl, N-azidoethyl)-aminomethyl]-ergoline hydrogen maleate] | 1.7 | 0.29 | 1 | 2.48 |  |  |

From US4299836A, “Novel ergol-8-ene and ergolin compounds and process for preparing same” (Richter Gedeon Vegyeszeti Gyar Rt., priority 1979, dated 1981)
